Results as given in patent US10280209B2 (YISSUM RESEARCH DEVELOPMENT COMPANY OF THE HEBREW …, priority 2013, dated 2019).
Several values for one entry are separate records, joined by “and”; a condition that tells them apart may be missing. Equal entries are not always repeated. Square brackets hold non-standard residues; d marks the D form. Ends that are not written are not given here.

Experiments:
[1] = test system: experimental autoimmune encephalitis; test: Experimental autoimmune encephalitis (EAE) model; format: in vivo, mouse
[2] = molecular target: T1, staphylococcal enterotoxin B (SEB) (Staphylococcus aureus, UniProt P01552); conditions: previously shown (3); cited from earlier work
[3] = molecular target: T1, staphylococcal enterotoxin B (SEB); conditions: previously shown (3); cited from earlier work; remark: listed apart in the source
signaling through CD3 = test: αCD3-induced cytokine expression in human PBMC (ELISA); format: cell-based; conditions: αCD3 alone, 10 μg/ml peptide
Experimental: (§1) Peripheral blood mononuclear cells (PBMC) from healthy human donors were separated on Ficoll Paque (Amersham), washed twice with 50 ml of RPMI 1640 medium, re-suspended at a density of 4×10^6 cells/ml and cultured in this medium supplemented with 2% fetal calf serum, 2 mM glutamine, 10 mM Minimum Essential Medium (MEM) nonspecific amino acids, […], 10 mM Hepes pH 7.2, 5×10^−5 M 2-mercaptoethanol, 100 u/ml penicillin, 100 μg/ml streptomycin and 5 μg/ml nystatin. Mouse anti-human monoclonal antibodies αCD3 (clone UCHT1; 100 ng/ml) and αCD28 (clone 37407; 2.5 μg/ml) (both from R&D Systems) were used as inducers. Cytokines in culture medium were determined with Quantikine ELISA kits (R&D Systems) according to the manufacturer's instructions.

CD28 = molecular target: T2, CD28 (Homo sapiens, UniProt P10747); test: αCD3/αCD28-induced cytokine expression in human PBMC (ELISA); format: cell-based; conditions: αCD3/αCD28, 10 μg/ml peptide
T2 construct: endogenous in cells; host or cells: human PBMC
Experimental: as §1

human PBMC = test: Cytokine induction by peptides alone in human PBMC (ELISA); format: cell-based; conditions: 10 μg/ml peptide, no inducer
Experimental: as §1

human IgG = test: Surface plasmon resonance, human IgG control on immobilized peptide; format: binding; conditions: SPR, studied in parallel
Experimental: Peptides were diluted to 10-200 μg/ml in 10 mM Sodium (Na) acetate pH 4.0 and immobilized on a CM5 sensor chip (BIAcore) using an amine-thiol coupling kit (BIAcore), respectively; the immobilized amounts were 500-1,000 resonance units. Analytes were injected at 20 μl/min in 25 mM HEPES pH 7.4, 150 mM NaCl, 3.4 mM EDTA, and 0.005% surfactant P20 under conditions showing no mass transport limitation. Regeneration was with 50 mM phosphoric acid. Kinetic analyses were performed at 25° C. in a BIAcore 3000 instrument, deducting the signal from the control flow cell from the binding signal. Analyte curves were run in duplicate; representative results are shown. Human IgG (Jackson Laboratories) served as control. Fusion of the IgG1-Fc domain to the 152-amino-acid extracellular domain of CD28 was performed as described below.

adjuvant arthritis = test: Adjuvant arthritis model; conditions: rat, in vivo
[4] = test system: collagen-induced arthritis; test: Collagen-induced arthritis model; format: in vivo, mouse; conditions: mice
[5] = FIG. 11A, daily from day 1, solumedrol 20 mg/kg, p2TB 50 μg, pe12-pal 100 μg
[6] = independent experiment FIG. 11B-D, daily, solumedrol 20 mg/kg, p2TB 50 μg, p2TB-pal 50 μg, pe12-pal 100 μg

Row | Compound | reduction of cumulative clinical score [1, 5] | reduction of cumulative clinical score [1, 6] | αCD3-mediated induction of IFN-γ (signaling through CD3) | αCD3-mediated induction of IL2 (signaling through CD3) | αCD3-mediated induction of TNF-α (signaling through CD3) | signaling through CD28 (IFN-γ, IL2, TNF-α secretion) (CD28) | Th1 cytokine response induced by peptide alone (human PBMC) | affinity for IgG (human IgG) | other results
1 | C[C@H]1C[C@@H]2[C@H]([C@@H](O)C[C@@]3(C)[C@H]2CC[C@]3(O)C(=O)COC(=O)CCC(=O)O)[C@@]2(C)C=CC(=O)C=C12 [solumedrol, reference compound] | 50% | 50% | – | – | – | – | – | – | –
2 | (D-A)ASMDYPVL(D-A) ([dA]ASMDYPVL[dA]) | – | – | – | – | – | – | – | – | ability to bind directly to SEB after scrambling of p2TA sequence [2]: strongly impair; ability to protect mice from lethal SEB challenge after scrambling of p2TA sequence [3]: strongly impair
3 | (D-A)PAVVLASS(D-A) ([dA]PAVVLASS[dA]) [p2TB, CTLA-4 homodimer interface peptide abutted by D-Ala at both termini] | – | – | did not inhibit | did not inhibit | did not inhibit | inhibit signaling through CD28 | do not induce a significant Th1 cytokine response | none of the peptides showed affinity for IgG | –
4 | (D-A)SHFTHNRHGHST(D-A) ([dA]SHFTHNRHGHST[dA]) [pe12] | – | – | did not inhibit | did not inhibit | did not inhibit | inhibit signaling through CD28 | do not induce a significant Th1 cytokine response | none of the peptides showed affinity for IgG | disease symptoms after termination of therapy on day 15 (adjuvant arthritis): leveled off and even showed a progressive further decline; cumulative reduction of disease symptoms (adjuvant arthritis; iv): 41%; disease symptoms during treatment, up to day 15 (adjuvant arthritis; iv): did not exhibit inhibition of symptoms
5 | (palmitoyl-lysine)PAVVLASS(D-A) (PAVVLASS[dA]; not fully specified (N-terminus)) [p2TB-pal] | – | – | – | – | – | – | – | – | reduction of cumulative disease symptoms ([4]; 100 μg once every 3 days starting on day 25): 34%; reduction of cumulative clinical score ([1]; mouse, in vivo): 41% and 31% and 38%
6 | (palmitoyl-lysine)SHFTHNRHGHST(D-A) (SHFTHNRHGHST[dA]; not fully specified (N-terminus)) [pe12-pal] | 63% | 42% | – | – | – | – | – | – | amelioration of disease symptoms ([4]; 150 μg once every 3 days from disease onset): 31%; amelioration of disease symptoms ([4]; 200 μg once every 5 days from disease onset): 27%; reduction of cumulative clinical score ([1]; independent experiment FIG. 11B-D, once every 3 days, p2TB 100 μg, p2TB-pal 100 μg, pe12-pal 150 μg): 48%
